From PMC10285300, “Abscisic acid mimic-fluorine derivative 4 alleviates water deficit stress by regulating ABA-responsive genes, proline accumulation, CO2 assimilation, water use efficiency and better nutrient uptake in tomato plants” (Frontiers in Plant Science, 2023)

Experiments:
ΔN-HAB1 = target: T1, ΔN-HAB1 (Arabidopsis thaliana, UniProt Q9CAJ0); experiment: phosphatase activity, […] nm, […] min; type: biochemical; details: 25 mM pNPP, 10 mM MnCl2, Tris pH 8.0
T1 sequence (Q9CAJ0 172-511 limits assumed): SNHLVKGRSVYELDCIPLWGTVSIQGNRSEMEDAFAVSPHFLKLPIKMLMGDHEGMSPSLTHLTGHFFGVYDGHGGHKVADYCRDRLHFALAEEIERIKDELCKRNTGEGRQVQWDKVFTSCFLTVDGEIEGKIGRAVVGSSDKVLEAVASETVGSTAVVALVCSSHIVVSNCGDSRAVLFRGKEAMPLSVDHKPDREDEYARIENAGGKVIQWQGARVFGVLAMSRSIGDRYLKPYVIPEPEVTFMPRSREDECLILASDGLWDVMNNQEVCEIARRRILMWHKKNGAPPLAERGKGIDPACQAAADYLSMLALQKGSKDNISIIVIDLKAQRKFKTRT

Sl08g076960 = target: T2, Sl08g076960 (Solanum lycopersicum, UniProt A0A3Q7HTY9); experiment: PP2C inhibition assay (pNPP, […] nm), receptor-dependent inhibition of HAB1; type: biochemical; details: agonist; deltaN-HAB1 1 uM, receptor 2 uM, 25 mM pNPP, 10 mM MnCl2, Tris pH 8.0
T2 construct: gene LOC101268417; with Protein phosphatase 2C 16 (Arabidopsis thaliana)
T2 sequence (A0A3Q7HTY9 1-231): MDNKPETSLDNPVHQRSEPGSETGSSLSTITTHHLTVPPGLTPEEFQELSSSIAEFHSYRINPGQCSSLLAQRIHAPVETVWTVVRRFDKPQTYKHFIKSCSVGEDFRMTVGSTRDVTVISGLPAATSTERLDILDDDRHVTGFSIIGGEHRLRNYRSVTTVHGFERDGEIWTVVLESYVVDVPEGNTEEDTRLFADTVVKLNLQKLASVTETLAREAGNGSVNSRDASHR
T2 sequence (Q9CAJ0 172-511 partner limits assumed): T1 sequence (Q9CAJ0 172-511 limits assumed)

Row | SMILES | phosphatase activity, 405 nm, 20 min (ΔN-HAB1) | PP2C activity at 1 or 10 μM (Sl08g076960)
1 | O=[N+]([O-])c1ccc(OP(=O)(O)O)cc1 [p-nitrophenyl phosphate] | Phosphatase activity was measured using p-nitrophenyl phosphate (pNPP) as a substrate | 
2 | CCCN1C(=O)CCc2cc(NS(=O)(=O)Cc3c(F)c(F)c(C)c(F)c3F)ccc21 [AMF4, N-(2-oxo-1-propyl-1,2,3,4-tetrahydroquinolin-6-yl)-1-(2,3,5,6-tetrafluoro-4-methylphenyl) methanesulfonamide] |  | both PYL1-like tomato receptors were activated by AMF4, resulting in the inhibition of the PP2C
